# Reference: patent US20240377399A1, “COMPOSITIONS AND METHODS FOR MODULATING HYDROXYLATION OF ACC2 BY PHD3” (President and Fellows of Harvard College, priority 2015, published 2024)
# Entries after “also recorded” stand apart in the source; their conditions may differ.
# Columns and labels:
# K562 leukemia cells = assay: Leukemia cell viability by PI staining after 96 hr drug treatment; assay type: cell-based, human; conditions: high-PHD3 CML line, 96 hr treatment, ranolazine 0-500 μM or etomoxir 0-200 μM
# Description: (§1) Drug treatment and PI staining. Cells were treated 96 hr with a range of doses of etomoxir (Cayman Chemical) or ranolazine dihydrochloride (VWR/Selleck Chemicals) or vehicle. Fresh etomoxir was spiked in at 24, 48 and 72 hr. Fresh ranolazine was spiked in at 48 hr. Dosing schedules were determined by identifying the minimum number of times drug must be re-added to observe an effect on cell viability. Cell viability at 96 hr was determined by staining cells with 1 µg/ml propidium iodide (Sigma) in PBS and flow cytometry on the BD LSR-II analyzer.
# MEGO1 = assay: as above; assay type: cell-based, human; conditions: high-PHD3 CML cell line, high dose of ranolazine, compared to low-PHD3 AML cells
# Description: as §1
# low-PHD3 leukemia cells = assay: as above; assay type: cell-based, human; conditions: 96 hr treatment, ranolazine 0-500 μM or etomoxir 0-200 μM
# Description: as §1
# 293T cells = assay: Palmitate oxidation (FAO assay); assay type: cell-based, human; conditions: low glucose, serum-free medium supplemented 5 mM for 6 h; PHD3-dependent
# Description: FIG. 10C is a photograph of an immunoblot showing 293T cells stably expressing shRNA against PHD3 or non-targeting control were incubated 12 h in high or low nutrient media prior to analyzing ACC hydroxylation by IP and immunoblot. FIG. 10D is a photograph of an immunoblot showing ACC hydroxylation dynamically responds to cellular nutrient cues. WT immortalized MEFs were incubated in high (4.5 g/L glucose DMEM with serum) or low (1 g/L glucose DMEM without serum) nutrient medium for 6 h, or in low nutrient medium for 6 h followed by adding back high nutrient medium for 5 or 10 min. ACC was immunoprecipitated in lysis buffer containing the PHD inhibitor DMOG (1 mM) to minimize further hydroxylation in the lysis buffer. Hydroxylation was detected by immunoblot. FIG. 10E is a bar graph showing the impact of PHD3 knockdown on the ability of immortalized MEFs to modulate palmitate oxidation levels in response to low or high nutrient medium (n=3). […] FIG. 10G is a bar graph showing short, medium and long chain acylcarnitine levels as measured by metabolomics analysis of 293T cells grown in high nutrient medium following stable knockdown with shRNA against PHD3 or control. […]
# MOLM14 cells [1] = assay: Cell growth (cell counting at 72 h) following PHD3 overexpression; assay type: cell-based, human; conditions: PHD3-overexpressing MOLM14; S2E 50 μM or metformin 1 mM
# Description: FIG. 12B, Growth curves of MOLM14 and THP1 cells stably overexpressing vector or PHD3 (n=3). FIG. 12C, ATP CellTiter-Glo analysis in MOLM14 and THP1 cells stably overexpressing vector or PHD3 (n=4). FIG. 12D, Colony formation assay with MOLM14 and THP1 cells stably overexpressing vector or PHD3. Colony forming units (CFU) were counted 8 days after plating MOLM14 and 20 days after plating THP1 (n=3). FIG. 12E, Representative images from colony formation assays with MOLM14 or THP1 cells stably overexpressing vector or PHD3. MOLM14 colonies were imaged on day 8 and THP1 colonies imaged on day 20 using an inverted microscope (Nikon Eclipse Ti-U) at 200× magnification and SPOT camera software 5.0. FIG. 12F, Immunoblot showing HA-PHD3 overexpression in K562 cells. FIG. 12G and FIG. 12H, Colony formation assay and representative images from K562 cells stably expressing PHD3 or vector. CFU were counted and imaged 10 days after plating (n=3). […] Following FACS to collect PI-negative cells, 8000 cells were plated per well of a 96-well plate, and cell number at 72 h was determined by cell counting (n=3). […] Colony formation was assessed in MOLM14 cells stably overexpressing vector or PHD3 in the presence or absence of metformin (Met, 1 mM). CFU were counted 8 days after plating (n=2). […]
# MOLM14 cells [2] = assay: Colony formation assay (soft agar); assay type: cell-based, human; conditions: for colony formation (growth): PHD3-overexpressing MOLM14, metformin 1 mM, CFU counted 8 days after plating
# Description: FIG. 12B, Growth curves of MOLM14 and THP1 cells stably overexpressing vector or PHD3 (n=3). FIG. 12C, ATP CellTiter-Glo analysis in MOLM14 and THP1 cells stably overexpressing vector or PHD3 (n=4). FIG. 12D, Colony formation assay with MOLM14 and THP1 cells stably overexpressing vector or PHD3. Colony forming units (CFU) were counted 8 days after plating MOLM14 and 20 days after plating THP1 (n=3). FIG. 12E, Representative images from colony formation assays with MOLM14 or THP1 cells stably overexpressing vector or PHD3. MOLM14 colonies were imaged on day 8 and THP1 colonies imaged on day 20 using an inverted microscope (Nikon Eclipse Ti-U) at 200× magnification and SPOT camera software 5.0. FIG. 12F, Immunoblot showing HA-PHD3 overexpression in K562 cells. FIG. 12G and FIG. 12H, Colony formation assay and representative images from K562 cells stably expressing PHD3 or vector. CFU were counted and imaged 10 days after plating (n=3). […] Cells were treated with S2E (50 μM, Sigma), metformin (1 mM, Sigma) or vehicle following viral infection with PHD3 and throughout the duration of the experiment. Infected cells were selected with puromycin. Following FACS to collect PI-negative cells, 8000 cells were plated per well of a 96-well plate, and cell number at 72 h was determined by cell counting (n=3). […] Colony formation was assessed in MOLM14 cells stably overexpressing vector or PHD3 in the presence or absence of metformin (Met, 1 mM). CFU were counted 8 days after plating (n=2). FIG. 12K, qPCR analysis of PHD3 gene expression in primary human CD34+ cells from bone marrow filtrate of a healthy donor or AML patient samples (690a, 2093 and 2266). PPIA was used as a reference gene. FIG. 12L, ATP CellTiter-Glo analysis of cell viability in AML patient samples following stable overexpression of empty vector or PHD3 (n=4).
# ACC2 = molecular target: T1, ACC2 (Homo sapiens, UniProt O00763); assay: ACC activity assay in 293T cell lysates; assay type: biochemical; conditions: lysates overexpressing ACC2; citrate 2 mM
# T1 construct: expressed in transfected cells; host or cells: 293T cells, whole-cell lysate (50 ug protein per reaction)
# Description: ACC activity assay. Reactions were performed as previously described, with the exception of using 16.7 mM MgCl2 instead. 50 μg protein lysate was used for each reaction. Following addition of 1 N HCl to quench reactions and convert remaining [^14C]bicarbonate (American Radiolabeled Chemicals) to CO2, reactions were evaporated 2 hours at 600 and 15 min at 850 in a thermo shaker. ACC activity was calculated as incorporation of [^14C]bicarbonate into [^14C]malonyl CoA (the acid and heat stable product) as measured by scintillation counting.
# recombinant PHD3 = recombinant PHD3 (Homo sapiens, UniProt Q9H6Z9); assay: In vitro hydroxylation assay with ACC2 peptides; assay type: biochemical; conditions: 12.5 nmol synthetic peptide; radioactivity-based, [14C]CO2 release
# Description: In vitro hydroxylation assay. The in vitro hydroxylation assay was modified from a previously described assay based on the fact that hydroxylation by PHDs results in decarboxylation of […]-ketoglutarate to form carbon dioxide. Briefly, […] reactions were performed in glass vials sealed with rubber stoppers and parafilm wax. Reaction mixtures containing 12.5 nmol synthetic peptide (Peptide 2.0), 50 mM Tris/HCl (pH 7.8), 2 mg/ml BSA, 4200 U/ml catalase, 0.1 mM DTT, 2 mM ascorbate, 500 μM FeSO4·7H2O, 0.02 μmol [1-^14C][…]-ketoglutarate (Perkin Elmer) and 1.2 μg recombinant PHD3 were incubated at 370 for 30 min. Reactions were stopped by injection of 0.25 ml of 1 M KH2PO4 (pH 5) into vials. Vials were agitated on slow speed for 30 min at room temperature to allow capture of [^14C]CO2 onto solubilized Whatman paper positioned at the top of the vials. CPM were measured by scintillation counts on filter paper.
# KU812 = assay: Leukemia cell viability by PI staining after 96 hr drug treatment; assay type: cell-based, human; conditions: low-PHD3 CML cell line; 96 hr treatment with etomoxir
# Description: as §1
# HepG2 cells = assay: Palmitate oxidation (FAO assay); assay type: cell-based, human; conditions: etomoxir 100 μM during the 2 h FAO assay; figure printed for PHD3 overexpression, etomoxir stated to achieve a similar level
# Description: Fatty acid oxidation. For FAO assays, cells in 12 well-plates were pre-incubated with 100 µM palmitate or hexanoate and 1 mM carnitine for 4 hr in serum-free low glucose media, unless otherwise noted. Cells were then changed to 600 l media containing 1 μCi [9,10(n)-^3H]palmitic acid (GE Healthcare) or 1.8 μCi n-[5,6-^3H]hexanoic acid (American Radiolabeled Chemicals) and 1 mM carnitine for 2 hr. The medium was collected and eluted in columns packed with DOWEX 1X2-400 ion exchange resin (Sigma) to analyze the released ^3H20, formed during oxidation of [3H]palmitate. FAO in complete media indicates media including serum was used for pre-incubation and FAO analysis. Basal FAO indicates cells were not pre-incubated with fatty acids prior to FAO analysis. For all FAO experiments, counts per minute (CPM) were normalized to protein content in cell lysates.
# MOLM14 cells [3] = assay: Palmitate oxidation (FAO assay); assay type: cell-based, human; conditions: S2E 50 μM for 3 days; 3 h incubation with radiolabeled palmitate
# Description: FIG. 15 includes 10 panels, FIGS. 15A-J, showing PHD3 modulation in leukemia cell lines. FIG. 15A, PHD3 expression in MOLM14 and THP1 cells following stable overexpression of vector or PHD3 (n=3). FIG. 15B, Palmitate oxidation in HepG2 cells treated with etomoxir during the 2 h FAO assay (100 μM, n=3). FIG. 15C and FIG. 15D, PHD3 expression and growth curves in K562 cells following stable overexpression of PHD3 or vector (n=3). FIG. 15E, Growth curves of K562 cells stably expressing shRNA against PHD3 or control (n=3). FIG. 15F, Colony formation assay with K562 cells stably expressing shRNA against PHD3 or non-silencing control. Colony forming units (CFU) were counted 10 days after plating (n=2). FIG. 15G, Representative images from colony formation assays with K562 cells stably expressing shRNA against PHD3 or non-silencing control. Colonies were imaged on day 10 using an inverted microscope (Nikon Eclipse Ti-U) at 200× magnification and SPOT camera software 5.0. […] MOLM14 cells were incubated with S2E (50 μM) or vehicle for 3 days. FAO was measured following 3 h incubation with radiolabeled palmitate in the presence of S2E or vehicle. FIG. 151, PHD3 expression in MOLM14 cells following stable overexpression of vector or PHD3 (n=3). […]
# Chain of recombinant PHD3 (Q9H6Z9 whole entry): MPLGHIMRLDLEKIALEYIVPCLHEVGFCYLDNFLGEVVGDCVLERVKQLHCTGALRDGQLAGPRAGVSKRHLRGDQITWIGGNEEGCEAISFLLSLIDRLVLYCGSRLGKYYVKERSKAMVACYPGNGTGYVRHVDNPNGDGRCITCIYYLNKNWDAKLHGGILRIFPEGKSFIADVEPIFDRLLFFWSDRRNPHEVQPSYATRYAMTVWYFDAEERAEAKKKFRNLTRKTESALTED
# T1 sequence (O00763 whole entry): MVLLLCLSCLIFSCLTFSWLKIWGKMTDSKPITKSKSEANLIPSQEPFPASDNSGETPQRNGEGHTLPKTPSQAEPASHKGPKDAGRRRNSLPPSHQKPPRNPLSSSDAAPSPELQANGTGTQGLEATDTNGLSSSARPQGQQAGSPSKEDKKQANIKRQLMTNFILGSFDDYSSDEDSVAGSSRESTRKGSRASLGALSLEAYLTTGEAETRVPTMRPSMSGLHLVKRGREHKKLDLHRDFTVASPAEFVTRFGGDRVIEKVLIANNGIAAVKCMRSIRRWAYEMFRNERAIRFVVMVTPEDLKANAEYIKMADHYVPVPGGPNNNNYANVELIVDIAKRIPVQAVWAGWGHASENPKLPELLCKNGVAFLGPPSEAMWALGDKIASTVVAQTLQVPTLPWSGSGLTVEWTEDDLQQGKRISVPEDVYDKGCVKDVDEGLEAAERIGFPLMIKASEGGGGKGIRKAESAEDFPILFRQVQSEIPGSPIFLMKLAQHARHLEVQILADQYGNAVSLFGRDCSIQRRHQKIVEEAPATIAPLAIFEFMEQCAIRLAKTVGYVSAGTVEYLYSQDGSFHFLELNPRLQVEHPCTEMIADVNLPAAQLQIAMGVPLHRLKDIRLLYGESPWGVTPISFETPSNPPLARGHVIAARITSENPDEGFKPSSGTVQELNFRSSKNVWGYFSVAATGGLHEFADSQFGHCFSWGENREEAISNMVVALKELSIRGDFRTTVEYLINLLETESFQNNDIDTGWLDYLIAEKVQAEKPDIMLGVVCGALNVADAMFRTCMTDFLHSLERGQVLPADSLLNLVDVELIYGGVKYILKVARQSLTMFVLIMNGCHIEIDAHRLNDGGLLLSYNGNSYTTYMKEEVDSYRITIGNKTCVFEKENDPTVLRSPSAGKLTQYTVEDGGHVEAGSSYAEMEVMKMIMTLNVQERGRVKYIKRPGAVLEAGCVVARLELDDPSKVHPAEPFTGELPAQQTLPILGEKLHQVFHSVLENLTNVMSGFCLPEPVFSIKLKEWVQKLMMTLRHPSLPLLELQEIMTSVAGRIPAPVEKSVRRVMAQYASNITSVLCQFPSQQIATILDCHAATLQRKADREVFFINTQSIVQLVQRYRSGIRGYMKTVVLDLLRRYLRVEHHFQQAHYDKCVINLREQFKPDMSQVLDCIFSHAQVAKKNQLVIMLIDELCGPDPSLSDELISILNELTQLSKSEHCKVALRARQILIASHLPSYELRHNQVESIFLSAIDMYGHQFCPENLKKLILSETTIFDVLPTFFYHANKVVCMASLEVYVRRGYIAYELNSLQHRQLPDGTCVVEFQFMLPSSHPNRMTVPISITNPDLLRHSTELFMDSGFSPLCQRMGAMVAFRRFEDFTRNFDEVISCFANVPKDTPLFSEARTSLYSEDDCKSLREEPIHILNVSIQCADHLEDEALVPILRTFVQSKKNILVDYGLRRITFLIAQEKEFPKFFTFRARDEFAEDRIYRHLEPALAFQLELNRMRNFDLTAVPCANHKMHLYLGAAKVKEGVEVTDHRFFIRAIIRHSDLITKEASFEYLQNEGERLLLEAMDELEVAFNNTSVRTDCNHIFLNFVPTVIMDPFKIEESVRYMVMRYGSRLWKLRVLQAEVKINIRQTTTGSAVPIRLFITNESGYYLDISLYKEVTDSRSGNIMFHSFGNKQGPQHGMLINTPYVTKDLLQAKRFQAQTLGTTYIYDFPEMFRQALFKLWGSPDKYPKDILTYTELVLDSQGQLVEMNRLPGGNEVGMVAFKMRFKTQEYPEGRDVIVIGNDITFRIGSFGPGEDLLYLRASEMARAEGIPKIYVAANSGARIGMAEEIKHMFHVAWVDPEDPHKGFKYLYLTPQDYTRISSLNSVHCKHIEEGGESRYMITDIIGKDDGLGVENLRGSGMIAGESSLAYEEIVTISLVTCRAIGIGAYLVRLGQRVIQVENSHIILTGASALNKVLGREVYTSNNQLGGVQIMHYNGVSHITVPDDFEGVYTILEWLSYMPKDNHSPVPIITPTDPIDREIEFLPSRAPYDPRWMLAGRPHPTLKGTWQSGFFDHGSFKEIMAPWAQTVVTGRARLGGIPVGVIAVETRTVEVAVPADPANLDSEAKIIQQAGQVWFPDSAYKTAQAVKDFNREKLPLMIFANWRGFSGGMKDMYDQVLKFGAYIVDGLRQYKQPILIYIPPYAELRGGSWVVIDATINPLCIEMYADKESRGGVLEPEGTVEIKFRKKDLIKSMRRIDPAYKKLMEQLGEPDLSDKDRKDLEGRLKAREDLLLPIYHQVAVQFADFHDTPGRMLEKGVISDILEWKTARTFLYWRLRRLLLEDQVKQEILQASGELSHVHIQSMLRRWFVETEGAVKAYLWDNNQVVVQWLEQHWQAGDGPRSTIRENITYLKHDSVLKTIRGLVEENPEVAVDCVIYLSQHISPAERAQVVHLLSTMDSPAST
molecule,measurement,setting,value
COc1ccccc1OCC(O)CN1CCN(CC(=O)Nc2c(C)cccc2C)CC1 (centres unmarked) [ranolazine],cell viability,K562 leukemia cells,viability was largely maintained
same,sensitivity (viability),MEGO1,less sensitive
same,cell viability,low-PHD3 leukemia cells,drastically reduced cell viability
COC(=O)CCC(=O)C(=O)OC [dimethyl ketoglutarate],palmitate oxidation,293T cells,repressed palmitate oxidation
CN(C)C(=N)N=C(N)N [metformin],cell growth at 72 h,MOLM14 cells [1],trend toward rescued growth
same,colony formation (growth),MOLM14 cells [2],improved growth; also recorded: partially rescues
same,colony formation (growth),MOLM14 cells [2]; listed as Metformin,partially blocks the growth inhibitory effects
same,cell growth in soft agar,"MOLM14 cells [2]; metformin on its own, 1 mM",impaired cell growth
O=C(O)CC(O)(CC(=O)O)C(=O)O [citrate],ACC activity,ACC2,activated
ERIGFPLMIKASEGGGGK [ACC2 peptide containing P450],hydroxylation by recombinant PHD3,recombinant PHD3,shown to hydroxylate
CCOC(=O)[C@@]1(CCCCCCOc2ccc(Cl)cc2)CO1 [etomoxir],sensitivity (viability),KU812,sensitive
same,cell viability,low-PHD3 leukemia cells,substantial cell death
same,repression of FAO (palmitate oxidation),HepG2 cells,over 50%
ARLELDDPSKVHPAE,hydroxylation by recombinant PHD3,recombinant PHD3,not
CC(C)(C)c1ccc(N2C[C@@H](COc3ccc(C(=O)O)cc3)CC2=O)cc1 [S2E],palmitate oxidation (FAO),MOLM14 cells [3],increases palmitate oxidation; also recorded: amplified FAO
same,cell growth at 72 h,MOLM14 cells [1],restores cell growth; also recorded: rescued Molm14 cell growth
AGQVWFPDSAYKTAQ [peptide containing P2131],hydroxylation by recombinant PHD3,recombinant PHD3,not
